Assay results from article PMC10393279, “Can BioSAXS detect ultrastructural changes of antifungal compounds in Candida albicans?–an exploratory study” (Frontiers in Pharmacology, 2023).
Read-outs that look alike come from different tables or passages of the source. No end group written: not given here.

How the values were obtained:
sheep erythrocytes = conditions: ref Andreu et al., 1992, Edlund et al., 1998; cited from earlier work
C. albicans [1] = experiment: microbe, parasite or virus in culture; type: cell-based, Candida albicans; conditions: broth microdilution, 30°C
Description: In this project, we used a clinical isolate of C. albicans obtained from Tim Planche (St. George’s, University of London).
Mueller-Hinton broth (MHb) (Merck, Life Science UK Limited, Dorset, UK) was prepared to concur with the manufacturer’s directions and supplemented with 2% glucose to grow C. albicans. Liquid cultures were incubated at 30°C for 18–20 h on a shaker, and culture on solid media was incubated for 18–24 h at 30°C.
When it comes to determining the antimicrobial activity of antimicrobial peptides (AMPs) there are unfortunately many different approaches reported. Many AMPs are negatively affected by positively charged ions and other components of growth media, therefore Mueller-Hinton broth (MHb) is frequently used since it supports the growth of many organisms and seems to interfere little with the activity of most AMPs. The […] of Flucytosine and antifungal peptides were determined using a protocol (option E) of the highly cited publication by [Wiegand et al. (2008)] optimized for the work with antimicrobial peptides. This protocol uses MHb (0.2% beef extract, 1.75% casein hydrolysate). To adopt that media for the growth of yeast 2% glucose was added. For comparison, YPD complex medium (1% yeast extract, 2% peptone, 2% dextrose) is often used for the growth of yeast. Where this media provides the best activity for antimicrobial peptides the results should be carefully used when comparing MIC values to other antifungals measured in different growth media. A broth microdilution assay was applied using 6 × 10^5 CFU/mL at 30°C. MICs were determined by the unaided eye, as the concentration in which no growth was observed.

human erythrocytes = conditions: no method in this paper, ref Grimsey et al., 2020; cited from earlier work
erythrocytes = system: erythrocytes; set-up: method as in 3 sources, one per row (each row's own in cited_ref): ref Cerovsky et al., 2009 ||| ref Cao et al., 2012; Almaaytah and Albalas, 2014 ||| ref Hirai et al., 1981; conditions: cited from earlier work
C. albicans [2] = experiment: BioSAXS ultrastructural changes, principal component analysis of scattering curves; type: cell-based, Candida albicans; conditions: 2xMIC, 40 min
Description: A detailed description of the sample preparation for BioSAXS, the BioSAXS measurement and consequently the data evaluation methods can be found in the open-source publication by [Von Gundlach et al. (2019)]. Briefly, an aliquot of an overnight culture of a clinical isolate of C. albicans was diluted in Mueller-Hinton broth (MHb) and incubated for 2.5 h at 30°C on a shaker (225 rpm) to achieve log phase growth. The C. albicans culture was adjusted to have 1.2 × 10^6 CFU/mL and aliquoted. The aliquots were then mixed with either sterile water or antifungal solution (2xMIC) to provide 6 × 10^5 CFU/mL aliquots. Those were further incubated for 40 min at 30°C at 225 rpm. All aliquots were then centrifuged at 10,000 rpm and washed 3 times in ml 0.1 M PIPES [piperazine-N,N′-bis(2-ethanesulfonic acid)] buffer, pH 7.0. After washing, the pellet was resuspended in 1 mL of 2.5% glutaraldehyde v/v in PIPES buffer and fixated for 1 h at room temperature at 225 rpm. Consequently, the samples were washed 3 times with PBS buffer and resuspended in 100 µL of PBS and stored at 5°C.
The SAXS measurements were performed on the P12 BioSAXS beamline, EMBL (DESY, Hamburg), using a double crystal Si (111) monochromator. An energy of 10 keV with a 10^13 s^−1 photon flux was used. 30 μL of each sample was injected into the measuring chamber by an automatic sample robot (Arinax, BioSAXS), the focus of the X-ray beam was 0.2 × 0.12 mm. The scattering signal was recorded with a Pilatus 2 M detector (Dectris, Switzerland). For each sample, 20 measurements were made with 0.05 s exposure. Before and after each measurement the background was measured and automatically subtracted from the SAXS curves. Data analysis and evaluation were done using the open-source software SciXMiner (“Peptide Extension”) ([Mikut, 2010]; [Mikut et al., 2017]). To determine differences in the scattering curves between treated and untreated samples as well as between the different treatments a principal component analysis (PCA) was applied to the scattering curves. The data are measurements of about 100,000 cells that were measured 20 times to obtain the scattering curves. SAXS curves were averaged and the standard deviation was used as an error bar. The PCA analysis was carried out in the frequency range between 0.05–0.4 nm^−1, and errors were propagated from the single SAXS curves (see Supplementary Figure S1).

[3] = Mueller-Hinton broth + 2% glucose, 6 × 10^5 CFU/ml C. albicans clinical isolate, read by unaided eye, n = 3, modal values
[4] = 6 × 10^5 CFU/mL, PCA range 0.05–0.4 nm^−1

KWKLFKKIGAVLKVL-NH2
hemolytic activity (sheep erythrocytes): > 500 µg/mL
MIC (C. albicans [1]; [3]): 18 µM

KRRVRWIIW-NH2 [OptP7]
HC50 (hemolysis) (human erythrocytes): > 250 µg/mL
MIC (C. albicans [1]; [3]): 24 µM

FIGAIARLLSKIFGKR-NH2 [Bmkn2]
HC50 (hemolysis) (erythrocytes; ref Cao et al., 2012, Almaaytah and Albalas, 2014): 17.13 µg/mL
MIC (C. albicans [1]; [3]): 18 µM

INLKAIAALAKKLL-NH2 [Mastoparan M]
hemolytic activity (erythrocytes; ref Hirai et al., 1981): very little
MIC (C. albicans [1]; [3]): 22 µM

Nc1[nH]c(=O)ncc1F [Flucytosine]
PC1 value, rank in the set of six antifungal compounds (C. albicans [2]): second-lowest
PC2 value compared to the untreated cells (direction) (C. albicans [2]): increased
PC2 value, rank in the set of six antifungal compounds (C. albicans [2]): highest
ΔPC1 (treated versus untreated), sign (C. albicans [2]): positive
increase of PC2 versus untreated sample (C. albicans [2]; [4]): about 1 unit
reduction of PC1 versus untreated sample (C. albicans [2]; [4]): about 6 units
MIC (C. albicans [1]; Candida albicans, MHb + 2% glucose, 6 × 10^5 CFU/mL C. albicans clinical isolate, read-out: MIC): 8 µg/mL

VNWKKILGKIIKVVK-NH2 [Lasioglossin LL-III]
hemolytic and cytotoxic activity (erythrocytes; ref Cerovsky et al., 2009): low
MIC (C. albicans [1]; [3]): 36 µM
